Marks after values point to notes of the source that are not given here. Positions of bridges follow the written chain, without caps; N, C: chain ends. Residues, ends and D or L forms follow the SMILES beside them.
Tests used:
S. aureus ATCC 43300 = test: In vitro dose-killing curves (24 h); format: cell-based, Staphylococcus aureus
Description: The in vitro dose-killing curves of NZX against the test S. aureus strains were conducted as previous described (Brinch et al. [2010]), with some modification. The S. aureus cells in mid-log phage were diluted. Then, the killing curves of NZX against S. aureus strains were carried out in the 48-well plate. Specifically, a volume of 50 μL NZX (0.6–150 μM) was mixed with 450 μL of the above diluted bacterial suspension (5 × 10^5 CFU/mL), and the mixtures were incubated in the Micro Oscillator for 24 h (600 rpm, 37 °C). Subsequently, the bacteria suspensions were plated on MHA medium to count. Lincomycin and ceftiofur were set as antibiotic controls, respectively. PBS was negative control. Results were expressed as the average of three independent experiments data.

[1] = Stability of NZX in mammary gland tissue homogenate; format: in vitro ADME; settings: mouse, 100 μg/mL in mammary gland tissue homogenate, 37 °C, SPE then HPLC–UV 280 nm, mean peak area / initial value, read-out: residual amount of NZX in mammary tissue homogenate
Description: (§1) A 0.5 g of mammary tissue or milk were weighed, homogenized, and transferred to a 10 mL polypropylene centrifuge tube, respectively, extracted sequentially by adding into a 3 mL of 0.1 M of McFarland buffer and 1% trichloroacetic acid (TCA), and cleaned by a C18 solid-phase extraction (SPE) cartridge (Oasis MAX 3 cc 60 mg and Oasis HLB 3 cc 60 mg, respectively, Waters, USA). Afterwards, a 2 mL of 45% acetonitrile with 2% formic acid and 3 mL of 45% acetonitrile were used to elute the columns, respectively, the collected eluents were freeze-dried and dissolved in 200 µL of deionized water and filtered by a […] sterile filter membrane before the analysis of high-performance liquid chromatography-ultraviolet (HPLC–UV). The HPLC–UV with a C18 reverse-phase column (ZORBAX Eclipse Plus C18 4.6 mm × 250 mm, 5 µm) conditions for detecting NZX were as follows: the mobile phase consisted of A: 0.1% trifluoroacetate […] in acetonitrile and B: 0.1%TFA in water; the injection volume was 40 μL; the wavelength of UV detector was 280 nm; flow rate was 1.0 mL/min; the column temperature was 35 °C, and the elution was conducted with a linear gradient of 20–45% mobile phase A for 16 min. The linear relationship, limits of detection (LOD), limits of quantitation (LOQ), accuracy and precision were determined by adding the known concentrations of NZX into the extracted blank matrix of mammary gland. Each concentration was conducted three times.
(§2) A 100 μg/mL of NZX was suspended in mammary gland tissue homogenate or milk, respectively, and then incubated at 37 °C for 0, 8, 16 and 24 h, respectively. Afterwards, samples were pretreated and quantified as the above methods. The results were expressed as a ratio of the mean peak area measured at different times divided by the mean value of the initial value.

Stability of NZX in milk = format: in vitro ADME; settings: 100 μg/mL in milk, 37 °C, SPE then HPLC–UV 280 nm, mean peak area / initial value, read-out: retention rate in milk
Description: as §1, §2

[2] = Pharmacokinetics in mouse mammary gland after intramammary administration; format: in vivo
Description: as §1
A pharmacokinetic assessment of a single dose of NZX at 100 μg/gland was carried out using 36 individual healthy lactating mice following intramammary administration (Wang et al. [2021]). Mammary tissues were harvested at 0.083, 0.5, 1, 2, 3, 4, 6, 9, 12, 16, 20 and 24 h with three mice (six mammary in total) at each time point. The collected samples were then placed into 2 mL eppendorf tubes and stored at − 80 °C before the content determination of NZX in mammary gland by HPLC–UV. Briefly, a portion of the mammary gland tissues (0.5 g) was weighed in 2 mL eppendorf tubes, homogenized for 20 min (50 HZ and 4 °C) in 0.5 mL of PBS solution, and pretreated and purified by a MAX cartridge as described above. The pharmacokinetic parameters of NZX in mammary gland tissues were calculated by non-compartmental model using WinNonlin Phoenix version 8.1 (Pharsight Co., Mountain View, CA, USA).

S. aureus ATCC 25923 = settings: 1 × 10^5 CFU/mL, 16–18 h, 37 °C, value marked a, already published, ref Zheng et al. [2022]; cited from earlier work
Excerpt: Table 1 The MICs, MBCs and MPCs of NZX and antibiotics against S. aureus strains (μM) | column: S. aureus ATCC 25923 / MIC

S. agalactiae = settings: against S. agalactiae; ref Wu et al. [2022]; cited from earlier work
Excerpt: MPCs and PAEs were also important parameters to allow antimicrobial dosage regimens to be developed in a much more scientific approach to reduce treatment cost, and the incidences of drug resistant bacteria and avoid unnecessary drug toxicity (Mackenzie and Gould [1993]).

[3] = mouse mammary tissue, single 100 μg/gland intramammary, healthy lactating mice, HPLC–UV, non-compartmental model

Question: For `CO/N=C(\C(=O)N[C@@H]1C(=O)N2C(C(=O)O)=C(CSC(=O)c3ccco3)CS[C@H]12)c1csc(N)n1` [Ceftiofur], which EC50 (S. aureus ATCC 43300; Staphylococcus aureus, ATCC43300, 50% reduction in Log10 CFU at 24 h between minimum and maximum) is on record?
Answer: 910 nM

Question: What about the Cs (S. aureus ATCC 43300; concentration causing no apparent growth in Log10 CFU at 24 h vs initial inoculum) of the same compound?
Answer: 0.91 µM

Question: Which results are given for `CC[C@H](C)[C@@H]1NC(=O)[C@H](CO)NC(=O)[C@H](CCCCN)NC(=O)[C@@H]2CSSC[C@@H](C(=O)N[C@@H](Cc3ccc(O)cc3)C(=O)O)NC(=O)[C@H](CCCCN)NC(=O)[C@@H]3CSSC[C@H](NC(=O)[C@H](CCC(N)=O)NC(=O)[C@H]([C@@H](C)CC)NC(=O)[C@H](CC(=O)O)NC(=O)[C@H](CC(=O)O)NC(=O)[C@H](CCC(=O)O)NC(=O)[C@H](CO)NC(=O)[C@H](Cc4c[nH]c5ccccc45)NC(=O)[C@@H]4CCCN4C(=O)CNC(=O)[C@H](CC(N)=O)NC(=O)[C@@H](NC(=O)CNC(=O)[C@H](Cc4ccccc4)NC(=O)CN)CSSC[C@H](NC(=O)[C@H](Cc4ccc(O)cc4)NC(=O)CNC(=O)CNC(=O)[C@H](CCCCN)NC(=O)[C@H](Cc4ccc(O)cc4)NC(=O)CNC(=O)[C@H](CCCCN)NC1=O)C(=O)N[C@@H](C)C(=O)N[C@@H](CCCNC(=N)N)C(=O)NCC(=O)NCC(=O)N[C@@H](Cc1ccccc1)C(=O)N[C@@H](C(C)C)C(=O)N3)C(=O)N[C@@H](Cc1c[nH]cn1)C(=O)N[C@@H](CC(N)=O)C(=O)N[C@@H](Cc1c[nH]cn1)C(=O)N2` [NZX] (H-GFGCNGPWSEDDIQCHNHCKSIKGYKGGYCARGGFVCKCY-OH; disulfide 4-30, 15-37, 19-39; N-terminus and C-terminus assumed)?
Answer: remaining at 8 h, 100 μg/mL ([1]; 8 h): 72.2%; remaining at 16 h, 100 μg/mL ([1]; 16 h): 48.4%; remaining at 24 h, 100 μg/mL ([1]; 24 h): 47.9%; remaining at 8 h, 100 μg/mL (Stability of NZX in milk; 8 h): 103%; remaining at 16 h, 100 μg/mL (Stability of NZX in milk; 16 h): 91.8%; remaining at 24 h, 100 μg/mL (Stability of NZX in milk; 24 h): 85.4%; AUC, area under the concentration time curve from time 0 to 24 h [2, 3]: 391 µg·h/g; Cmax, peak concentration [2, 3]: 32.49 µg/g; Tmax, peak time [2, 3]: 0.5 h; T1/2, terminal elimination half-life ([2]; mouse mammary tissue, single 100 μg/gland intramammary, healthy lactating mice, HPLC–UV, non-compartmental model, three mice (six glands) per time point): 35.11 h; tissue distribution after administration by milk duct ([2]; mouse, no detection in serum and organs (data not shown)): only distributed into mammary gland tissues; MIC (S. aureus ATCC 25923): 0.46^a μM; MPC (S. agalactiae): 1.82 µM
